Patent publication US5610159A, “N-oxides of morpholine derivatives and their use as therapeutic agents” (Merck Sharp & Dohme Limited, priority 1995, dated 1997)

Assay: stability of crystals on storage
Format: physicochemical
Experimental: Dimethylamine (approximately 10 ml) was condensed at -80° C. in a pressure tube and to this was added a solution of N-(4-azidobut-2-ynyl)-2-(R)-(1-(R)-(3,5-bis(trifluoromethyl)phenyl)ethoxy)-3-(S)-(4-fluorophenyl)morpholine (3.2 g) in dioxan (15 ml). The tube was sealed and the solution was heated at 90° C. for 16 h. The solution was evaporated to dryness and the residue chromatographed on silica gel (eluting with 5% methanol in dichloromethane containing 0.25% ammonia (SG. 0.88)) and the fractions containing the desired product were evaporated in vacuo to give the title compound. To a solution of this residue in diethyl ether was added 1M-HCl in methanol. The solution was evaporated to dryness and redissolved in diethyl ether to give crystals of the title compound hydrochloride salt m.p. 194°-198° C., [α]^22D+65.0° (c=0.5, H2 O).

Measured: stability of crystals

C[C@@H](O[C@H]1OCCN(Cc2nn[nH]c2CN(C)C)[C@H]1c1ccc(F)cc1)c1cc(C(F)(F)F)cc(C(F)(F)F)c1 [Description 9]
stable for at least five days: at 40° C. | at 40° C./75% relative humidity | at 80° C. | at 2000LUX
